Consider 7 molecules from US10800791B2, “Triazole ACC inhibitors and uses thereof” (Gilead Apollo, LLC, priority 2015, dated 2020).

By IC50 is commonly meant the point on the concentration scale where inhibition reaches its midpoint.

Converted amounts (≈) assume the structure as drawn. Like-named read-outs stand apart in the source and are kept apart here.

One assay has as its target human (hACC2) (Homo sapiens, UniProt O00763). Description: In vitro ACC inhibition assay (ADP-Glo), hACC2. It is filed as biochemical. The conditions noted are these: 5 nM ACC2, 20 μM ATP, 20 μM acetyl-CoA. The method, then: The detailed procedure is as follows. […] 10 μL ADP glo reagent was added. […] 20 μL kinase detection reagent was added.
The subject of a further assay is Rhizoctonia solani (Rs). Description: Growth inhibition assay of fungal pathogens, Rs. It is filed as cell-based. The following applies: 48 h. The procedure:
Compounds of the present invention were evaluated in a growth inhibition assay to determine the ability to control the growth of fungal pathogens, such as Botrtyis cinerea (Bc), Collectotrichum graminicola (Cg), Diplodia maydis (Dm), Fusarium moniliforme (Fm), Fusarium virguliforme (Fv), Phytophthora capsici (Pc), Rhizoctonia solani (Rs), and Septoria tritici (St).
Compounds to be tested were dissolved in DMSO at 2.5 mg/ml to produce compound stock solutions (“stocks”). Stocks were diluted with DMSO by a five-fold dilution in a 96-well stock plate, and two sets of final concentrations of 50, 10, and 2 ppm or 2, 0.4, and 0.08 ppm were obtained in vitro. A set of positive controls was also prepared, with various concentrations of Soraphen (2, 0.4, and 0.08 ppm), Metalaxyl (1.1, 0.22, and 0.04 ppm), and Metconazole (2, 0.4, and 0.08 ppm or 0.2, 0.04, and 0.008 ppm) after the five-fold dilutions. Negative controls on each plate included 2% DMSO, water, and a blank (media+2% DMSO).
Fungal spores were isolated from previously sub-cultured plates of Botrtyis cinerea (Bc), Collectotrichum graminicola (Cg), Diplodia maydis (Dm), Fusarium moniliforme (Fm), Fusarium virguliforme (Fv), Phytophthora capsici (Pc), and Septoria tritici (St). The isolated spores were diluted to individual concentrations with a 17% V8 liquid media. For Rhizoctonia solani (Rs) and Pythium irregulare, 1.5 mm mycelial plugs were used in place of spores and/4 Potato Dextrose Broth (PDB) was used for dilution. The spore concentrations and plug sizes were based on growth curves generated at 48 hours for each pathogen.
In a second 96-well plate, the spores or mycelial plugs, media, diluted compound solutions, and controls were combined. Once the compound was added, a true final concentration of compound in each well was measured by an OD600 reading, which adjusted for any compound precipitation that might have occurred in the well. Plate readings were repeated at both 24 and 48 hours. The blank negative control was used as a background subtraction. Additional visual ratings were performed at both 24 and 48 hours for checking on precipitation and confirming efficacy. Visual and OD600 ratings of the compounds at 48 hours were compared to the 2% DMSO negative control, and the percent of pathogen growth inhibition was determined based on those values.

[1] abbreviates: read-out: Concentration at 90% Inhibition Rs, Rhizoctonia solani, mycelial plugs, growth inhibition at 48 hours vs 2% DMSO control.
[2] abbreviates: read-out: Concentration at 90% Inhibition Rs, Rhizoctonia solani, mycelial plugs, growth inhibition vs 2% DMSO control at 48 hours.
[3] abbreviates: mycelial plugs, growth inhibition at 48 hours vs 2% DMSO control, read-out: Concentration at 90% Inhibition Rs.
Setting [4] is: mycelial plugs, growth inhibition vs 2% DMSO control at 48 hours, read-out: Concentration at 90% Inhibition Rs.

Chain of human (hACC2) (O00763 whole entry): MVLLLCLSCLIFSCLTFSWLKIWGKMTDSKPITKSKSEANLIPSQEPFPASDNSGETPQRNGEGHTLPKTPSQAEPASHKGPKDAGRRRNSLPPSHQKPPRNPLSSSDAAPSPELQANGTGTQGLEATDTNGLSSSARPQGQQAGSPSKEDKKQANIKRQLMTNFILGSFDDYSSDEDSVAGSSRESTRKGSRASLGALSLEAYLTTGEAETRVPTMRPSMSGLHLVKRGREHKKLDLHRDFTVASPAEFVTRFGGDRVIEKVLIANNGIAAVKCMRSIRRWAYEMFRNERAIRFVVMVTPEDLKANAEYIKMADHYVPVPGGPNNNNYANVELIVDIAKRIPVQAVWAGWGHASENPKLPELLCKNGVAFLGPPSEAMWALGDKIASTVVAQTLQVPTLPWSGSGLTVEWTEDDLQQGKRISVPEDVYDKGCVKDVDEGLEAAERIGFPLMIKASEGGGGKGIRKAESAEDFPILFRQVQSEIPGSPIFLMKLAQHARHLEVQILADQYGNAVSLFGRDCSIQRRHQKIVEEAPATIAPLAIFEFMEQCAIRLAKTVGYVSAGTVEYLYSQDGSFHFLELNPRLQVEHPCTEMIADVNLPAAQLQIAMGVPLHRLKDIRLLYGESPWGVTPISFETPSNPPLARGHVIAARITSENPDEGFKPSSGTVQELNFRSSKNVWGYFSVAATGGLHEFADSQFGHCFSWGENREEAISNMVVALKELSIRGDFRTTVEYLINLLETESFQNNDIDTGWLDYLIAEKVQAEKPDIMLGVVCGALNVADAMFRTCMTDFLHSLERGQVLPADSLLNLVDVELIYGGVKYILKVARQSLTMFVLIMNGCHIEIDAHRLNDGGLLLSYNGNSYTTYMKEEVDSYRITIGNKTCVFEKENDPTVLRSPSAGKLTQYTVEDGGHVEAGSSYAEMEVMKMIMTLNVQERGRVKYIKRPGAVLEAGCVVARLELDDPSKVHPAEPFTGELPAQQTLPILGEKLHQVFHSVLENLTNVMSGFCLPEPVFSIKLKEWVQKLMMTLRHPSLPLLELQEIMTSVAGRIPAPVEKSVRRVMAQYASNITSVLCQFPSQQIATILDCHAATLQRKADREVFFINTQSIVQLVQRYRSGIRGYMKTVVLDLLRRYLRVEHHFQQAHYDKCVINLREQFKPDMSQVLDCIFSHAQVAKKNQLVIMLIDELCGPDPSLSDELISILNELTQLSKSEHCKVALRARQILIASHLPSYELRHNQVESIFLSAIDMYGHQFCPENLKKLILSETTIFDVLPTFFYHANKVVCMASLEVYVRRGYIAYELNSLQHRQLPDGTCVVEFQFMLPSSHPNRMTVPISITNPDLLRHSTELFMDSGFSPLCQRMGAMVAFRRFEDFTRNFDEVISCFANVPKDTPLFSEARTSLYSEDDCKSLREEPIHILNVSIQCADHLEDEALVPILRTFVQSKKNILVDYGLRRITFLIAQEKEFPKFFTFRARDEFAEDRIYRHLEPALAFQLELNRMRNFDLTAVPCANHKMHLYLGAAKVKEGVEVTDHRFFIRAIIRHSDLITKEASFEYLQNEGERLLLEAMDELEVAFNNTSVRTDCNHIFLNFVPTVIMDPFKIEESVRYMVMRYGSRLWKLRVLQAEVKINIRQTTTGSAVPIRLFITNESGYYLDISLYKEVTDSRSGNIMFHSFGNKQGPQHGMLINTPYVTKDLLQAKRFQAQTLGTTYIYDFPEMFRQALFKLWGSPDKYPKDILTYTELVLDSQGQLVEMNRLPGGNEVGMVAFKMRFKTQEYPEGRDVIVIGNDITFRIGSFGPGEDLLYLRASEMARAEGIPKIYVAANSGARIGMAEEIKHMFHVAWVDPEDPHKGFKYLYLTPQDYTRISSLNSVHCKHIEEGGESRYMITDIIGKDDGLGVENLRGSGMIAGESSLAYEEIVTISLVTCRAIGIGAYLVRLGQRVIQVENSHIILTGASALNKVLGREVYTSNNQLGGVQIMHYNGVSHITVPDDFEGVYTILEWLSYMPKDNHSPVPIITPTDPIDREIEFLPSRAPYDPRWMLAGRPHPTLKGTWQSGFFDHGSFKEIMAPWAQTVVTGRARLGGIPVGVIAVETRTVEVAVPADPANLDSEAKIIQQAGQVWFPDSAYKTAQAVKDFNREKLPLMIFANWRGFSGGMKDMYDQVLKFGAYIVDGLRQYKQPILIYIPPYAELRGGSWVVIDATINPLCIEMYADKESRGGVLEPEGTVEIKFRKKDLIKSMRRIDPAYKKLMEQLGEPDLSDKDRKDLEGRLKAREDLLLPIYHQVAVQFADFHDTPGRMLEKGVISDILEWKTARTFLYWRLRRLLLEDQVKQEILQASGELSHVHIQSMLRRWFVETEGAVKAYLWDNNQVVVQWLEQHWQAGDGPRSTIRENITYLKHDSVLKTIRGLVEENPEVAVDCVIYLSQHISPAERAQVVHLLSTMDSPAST

As for `COc1ccc(F)cc1[C@H](Cn1c(=O)n(C(C)(C)C(=O)NC(C)C)c(=O)c2c(C)c(-n3nccn3)sc21)OC1CCOCC1` [Compound I-23, (R)-2-(1-(2-(5-fluoro-2-methoxyphenyl)-2-((tetrahydro-2H-pyran-4-yl)oxy)ethyl)-5-methyl-2,4-dioxo-6-(2H-1,2,3-triazol-2-yl)-1,4-dihydro-thieno[2,3-d]pyrimidin-3(2H)-yl)-N-isopropyl-2-methylpropanamide], the IC50 against human (hACC2) (Table 2a) is 5 to 10 nM; against human (hACC2) (Table 2b, additional results), 5 to 10 nM. The IC90 in the assay on Rhizoctonia solani (Rs) (setting [1]) and with Rhizoctonia solani (Rs) (setting [2]) was 0.08 µg/mL (≈ 0.127 µM) in each case.
For the molecule `COc1ccc(F)cc1[C@H](Cn1c(=O)n(C(C)(C)C(=O)N2CCCC2)c(=O)c2c(C)c(-n3nccn3)sc21)OC1CCOCC1` [Compound I-25], the IC50 lay in the range of 5 to 10 nM on human (hACC2) (Table 2a) and 5 to 10 nM against human (hACC2) (Table 2b, additional results). The IC90 in the assay on Rhizoctonia solani (Rs) (setting [3]) and in the assay on Rhizoctonia solani (Rs) (setting [4]) was 0.08 µg/mL (≈ 0.125 µM) throughout.
In the case of `COc1ccc(F)cc1[C@H](Cn1c(=O)n(CC(=O)N2CCCC2)c(=O)c2c(C)c(-n3nccn3)sc21)OC(C)C` [Compound I-36, (R)-1-(2-(5-fluoro-2-methoxyphenyl)-2-isopropoxyethyl)-5-methyl-3-(2-oxo-2-(pyrrolidin-1-yl)ethyl)-6-(2H-1,2,3-triazol-2-yl)thieno[2,3-d]pyrimidine-2,4(1H,3H)-dione], the IC50 was 1 to 5 nM against human (hACC2) (Table 2a) and 1 to 5 nM at human (hACC2) (Table 2b, additional results). Besides, the IC90 in the assay with Rhizoctonia solani (Rs) (setting [3]) and in the assay on Rhizoctonia solani (Rs) (setting [4]) was 0.4 µg/mL (≈ 0.701 µM) in each case.
`COc1ccc(F)cc1[C@H](Cn1c(=O)n([C@@H](C)C(=O)NC(C)C)c(=O)c2c(C)c(-n3nccn3)sc21)OC(C)C` [Compound I-37, (S)-2-(1-((R)-2-(5-fluoro-2-methoxyphenyl)-2-isopropoxyethyl)-5-methyl-2,4-dioxo-6-(2H-1,2,3-triazol-2-yl)-1,4-dihydrothieno[2,3-d]pyrimidin-3(2H)-yl)-N-isopropylpropanamide]: the IC50 against human (hACC2) (Table 2a) fell in the range of 5 to 10 nM; on human (hACC2) (Table 2b, additional results), 5 to 10 nM. Further, the IC90 with Rhizoctonia solani (Rs) (setting [1]) and in the assay on Rhizoctonia solani (Rs) (setting [2]) was 0.4 µg/mL (≈ 0.698 µM) in each case.
Turning to `COc1ccc(F)cc1[C@H](Cn1c(=O)n([C@H](C)C(=O)NC(C)C)c(=O)c2c(C)c(-n3nccn3)sc21)OC(C)C` [Compound I-38, (R)-2-(1-((R)-2-(5-fluoro-2-methoxyphenyl)-2-isopropoxy-ethyl)-5-methyl-2,4-dioxo-6-(2H-1,2,3-triazol-2-yl)-1,4-dihydrothieno[2,3-d]pyrimidin-3(2H)-yl)-N-isopropylpropanamide], the IC50 against human (hACC2) (Table 2a) was 5 to 10 nM; against human (hACC2) (Table 2b, additional results), 5 to 10 nM. Moreover, the IC90 in the assay with Rhizoctonia solani (Rs) (setting [1]) and with Rhizoctonia solani (Rs) (setting [2]) was 0.4 µg/mL (≈ 0.698 µM) throughout.
Consider `COc1ccc(F)cc1[C@H](Cn1c(=O)n([C@@H](C)C(=O)N2CCCC2)c(=O)c2c(C)c(-n3nccn3)sc21)OC(C)C` [Compound I-39, 1-((R)-2-(5-fluoro-2-methoxyphenyl)-2-isopropoxyethyl)-5-methyl-3-((S)-1-oxo-1-(pyrrolidin-1-yl)propan-2-yl)-6-(2H-1,2,3-triazol-2-yl)thieno[2,3-d]pyrimidine-2,4(1H,3H)-dione], for which the IC50 against human (hACC2) (Table 2a) lay within 5 to 10 nM; against human (hACC2) (Table 2b, additional results), 1 to 5 nM. The IC90 in the assay with Rhizoctonia solani (Rs) (setting [3]) and in the assay on Rhizoctonia solani (Rs) (setting [4]) was 0.4 µg/mL (≈ 0.684 µM) throughout.
Take `COc1ccc(F)cc1[C@H](Cn1c(=O)n(C(C)C(=O)N2CCCC2)c(=O)c2c(C)c(-n3nccn3)sc21)OC(C)C` (stereo partly drawn) [Compound I-40, 1-((R)-2-(5-fluoro-2-methoxyphenyl)-2-isopropoxyethyl)-5-methyl-3-(1-oxo-1-(pyrrolidin-1-yl)propan-2-yl)-6-(2H-1,2,3-triazol-2-yl)thieno[2,3-d]pyrimidine-2,4(1H,3H)-dione]: the IC50 at human (hACC2) (Table 2a) was 5 to 10 nM; against human (hACC2) (Table 2b, additional results) it was 5 to 10 nM. In addition, the IC90 was 0.4 µg/mL (≈ 0.684 µM) in the assay on Rhizoctonia solani (Rs) (setting [3]) and 0.08 µg/mL (≈ 0.137 µM) in the assay with Rhizoctonia solani (Rs) (setting [4]).
